Laboratory results reported in EP4470537A1, “COMPOUND FOR USE IN TREATING FIBRODYSPLASIA OSSIFICANS PROGRESSIVA (FOP)” (Queen's University At Kingston, priority 2023, dated 2024).

Columns and labels:
RAR = RAR transcriptional activation assay (RARE-luc MCF-7 cells); format: cell-based; conditions: 0.1 nM to 10 µM, 24 hours of treatment
Description: This retinoid transcriptional activity assay measures the ability of a test compound to induce expression of a RA-sensitive reporter construct. This assay utilizes MCF-7 cells stably transduced with a gene construct comprising 4 tandem RA-response elements linked to a promoter driving transcriptional expression of the firefly luciferase encoding mRNA (RARE-luc). This construct serves as a sensitive reporter of retinoid-like activity.
RARE-luc transduced MCF-7 cells were maintained in a RPMI-1640 medium containing 10% FBS. Cells were grown in 96-well plates, and treated with the test compound diluted in DMSO in duplicate at 0.1 nM, 1 nM, 10 nM, 100 nM, 1 µM and 10 µM final concentrations. As a positive control for reporter activation, cells were also treated with RA diluted in DMSO at the same concentrations. DMSO treatment alone served as a negative control. After 24 hours of treatment, cells were harvested lysis buffer (Molecular Devices, San Jose, USA) and luciferase activity in cell lysates were read using a luminometer.

heterotopic ossification = assay: Surgical mouse model of heterotopic ossification (rhBMP2 collagen disk implant); format: in vivo
Description: Disks were impregnated with 1µg total of recombinant human BMP-2 (GenScript, Piscataway, NJ, USA, catalog #Z02913, lot #P50031712) on the day of surgery (5µl of 200ng/µL BMP-2, reconstituted in 20mM acetic acid solution). The rhBMP2-soaked collagen disk was surgically implanted into a small pocket made in the left gastrocnemius muscle of a 6-8 week-old male CD-1 mouse.
At the study endpoint (Day 14: 16-30 hours after final compound treatment) left hindlimbs were removed and submitted to micro-CT (micro-computed tomography) imaging.
CT images were acquired using a VECTor^4CT pre-clinical scanner (MILabs B.V., Utrecht, Netherlands) equipped with a cone beam X-ray CT system. Scans were carried out with an acceleration voltage of 50 kVp and an X-ray tube current of 430 µA in accurate focus mode to obtain 3600 projections over a 360° scan. […] CT images were consequently processed using MILabs reconstruction software implementing a voxel size of 20 µm and a Hann projection filter of 25 µm to generate 3-dimensional CT images. For quantification, CT images were converted to DICOM® files using PMOD 3.9 software (PMOD Technologies Ltd., Zurich, Switzerland) for rendering using RadiAnt DICOM Viewer 4.2 software (Medixant, Poznań, Poland). The region-of-interest for all hindlimbs, reconstructed from DICOM files, was defined by outlining sites of ectopic ossification. Analysis of total ectopic bone volume was conducted via automated processes using the AnalyzePro software with the Bone Microarchitecture Analysis (BMA) add-on (AnalyzeDirect, Overland Park, Kansas).

growth plates = assay: Long bone growth and growth plate toxicity in juvenile FVB mice; conditions: mouse, in vivo
Description: For both palovarotene and compound 1 efficacy and toxicity were correlated to the pharmacokinetic parameters AUC (area under the curve), Cmax (maximum concentration detected following compound administration), and duration above EC50/IC50.This illustrated that efficacy was best predicted by duration above the EC50/IC50 (effective concentration for 50% response (in the case of palovarotene), or for 50% inhibition (in the case of compound 1)), whereas toxicity was best predicted by Cmax. […] For palovarotene, efficacy data from Example 7 and toxicity data from Example 8 above were compiled with mined data from the following publications: • Lindborg et al (2018). "Cartilage-derived retinoic acid-sensitive protein (CD-RAP): A stage-specific biomarker of heterotopic endochondral ossification (HEO) in fibrodysplasia ossificans progressiva (FOP)." Bone 109: 153-157. • Chakkalakal, S. A., et al. (2016). "Palovarotene Inhibits Heterotopic Ossification and Maintains Limb Mobility and Growth in Mice With the Human ACVR1(R206H) Fibrodysplasia Ossificans Progressiva (FOP) Mutation." J Bone Miner Res 31(9): 1666-1675. • Inubushi, T., et al. (2018). "Palovarotene Inhibits Osteochondroma Formation in a Mouse Model of Multiple Hereditary Exostoses." J Bone Miner Res 33(4): 658-666. • Lees-Shepard, J. B., et al. (2018). […]

ectopic bone formation = assay: Genetic model of FOP (pinch injury, Acvr1 cR206H/+;Pdgfra-Cre+ mice); format: in vivo, mouse; conditions: for Mean ectopic bone volume D14 / percent change from vehicle (D14): day 14; for Mean ectopic bone volume D22 / percent change from vehicle (D22): day 22
Description: Acvr1^(cR206H/+) mice were obtained from the International Fibrodysplasia Ossificans Progressiva Association (IFOPA, North Kansas City, MO, USA). These animals harbour a Cre recombinase-inducible Acvr1 transgenic allele, which causes a switch from wild-type mouse ACVR1 protein expression to that of a chimeric mouse/human protein containing the R206H mutation seen in >95% of FOP patients. These animals were intercrossed with Pdgfra-Cre expressing mice (C57BL/6-Tg(PDGFRA-cre)1Clc/J mice, available through The Jackson Laboratory, Bar Harbor, ME, USA) which activates Cre recombination in fibro-adipogenic precursors, currently believed to be the cells of origin for FOP (Lees-Shepard, J.B., et al (2018) Nat Commun 9, 471.). Resulting study animals (ACVR1^(R206H/+);Pdgfra-Cre+) are susceptible to injury-induced ectopic bone formation. These animals were subjected to a bilateral gastrocnemius pinch procedure under anaesthesia, whereby a Halsted-mosquito hemostat (product#13008-12, Fine Science Tools Inc., North Vancouver, BC, Canada) is used to compress the gastrocnemius muscle, at its widest part, to approximately 2mm for 5s, and then released. This injury elicits robust ectopic bone formation within 10-14 days (for description of procedure see, Lyu, H., et al. (2021). Biomedicines 9(6).). Animals began treatment with various doses of compound 1 (0.5 mg/kg BID, 1 mg/kg BID, 2 mg/kg BID, 4 mg/kg BID, 7.5 mg/kg BID and 10 mg/kg BID or 2 mg/kg QD and 10 mg/kg QD) or palovarotene (1.76 mg/kg QD or 0.88 mg/kg QD) or corn oil vehicle on the day following the procedure for 21 days. Micro-CT imaging was performed on day 14 (under anaesthesia) and at study termination (day 22), as outlined above in Example 7. Sites of ectopic bone formation in the area of the injury were volumetrically quantified using Class stratification in Imalytics Preclinical software (version 3.0.2.3, Gremse-IT GmbH, Aachen, Germany) from DICOM renderings. Using this model, the utility of compound 1 in inhibiting bone formation in a genetic mouse model of FOP was illustrated (see Figure 11 and Table 3 below). […]

## CC(C)(C)c1cccc(-c2cc3cc(/C=C/C(=O)O)ccc3[nH]2)c1 [compound 1, (E)-3-(2-(3-(tert-butyl)phenyl)-1H-indol-5-yl)acrylic acid]
RAR
  luciferase activity: did not induce luciferase activity significantly
Heterotopic ossification; result in words, 2 to 18 mg/kg QD or BID, 14 days, micro-CT
  ectopic bone formation: dose-dependent decrease in ectopic bone formation from vehicle
Growth plates
  disturbances to the growth of long bones and microarchitecture of the growth plates: not observed
Ectopic bone formation; 0.5mg/kg BID
  Mean ectopic bone volume D14: 5.31 ± 6.65 mm^3
  percent change from vehicle (D14): -51.9%
  Mean ectopic bone volume D22: 4.01 ± 7.71 mm^3
  percent change from vehicle (D22): -63.4%
Ectopic bone formation; 1mg/kg BID
  Mean ectopic bone volume D14: 4.88 ± 6.79 mm^3
  percent change from vehicle (D14): -55.8%
  Mean ectopic bone volume D22: 5.50 ± 10.67 mm^3
  percent change from vehicle (D22): -49.8%
Ectopic bone formation; 2mg/kg BID
  Mean ectopic bone volume D14: 4.62 ± 5.80 mm^3
  percent change from vehicle (D14): -58.1%
  Mean ectopic bone volume D22: 5.08 ± 7.90 mm^3
  percent change from vehicle (D22): -53.6%
Ectopic bone formation; 2mg/kg QD
  Mean ectopic bone volume D14: 3.61 ± 4.98 mm^3
  percent change from vehicle (D14): -67.3%
  Mean ectopic bone volume D22: 1.77 ± 1.73 mm^3
  percent change from vehicle (D22): -83.8%
Ectopic bone formation; 4mg/kg BID
  Mean ectopic bone volume D14: 1.54 ± 2.85 mm^3
  percent change from vehicle (D14): -86.1%
  Mean ectopic bone volume D22: 2.65 ± 6.33 mm^3
  percent change from vehicle (D22): -75.8%
Ectopic bone formation; 7.5mg/kg BID
  Mean ectopic bone volume D14: 0.26 ± 0.42 mm^3
  percent change from vehicle (D14): -97.6%
  Mean ectopic bone volume D22: 0.06 ± 0.16 mm^3
Ectopic bone formation; 10mg/kg BID
  percent change from vehicle (D14): -88.4%
  percent change from vehicle (D22): -87.2%
Ectopic bone formation; 10mg/kg QD
  Mean ectopic bone volume D14: 1.56 ± 3.61 mm^3
  percent change from vehicle (D14): -85.9%
  Mean ectopic bone volume D22: 2.13 ± 6.10 mm^3
  percent change from vehicle (D22): -80.6%
Ectopic bone formation; result in words, comparison with palovarotene
  efficacy in inhibiting bone formation: at least as efficacious as clinically relevant doses of palovarotene

## CC1(C)CCC(C)(C)c2cc(Cn3cccn3)c(/C=C/c3ccc(C(=O)O)cc3)cc21 [palovarotene, reference compound]
Heterotopic ossification; 0.88mg/kg, 13 days, Day 14
  percent change in HO volume from vehicle mean: +2.5%
Ectopic bone formation; 0.88mg/kg QD
  Mean ectopic bone volume D14: 2.42 ± 3.93 mm^3
  percent change from vehicle (D14): -78.0%
  Mean ectopic bone volume D22: 0.75 ± 0.97 mm^3
  percent change from vehicle (D22): -93.2%
Ectopic bone formation; 1.76mg/kg QD
  Mean ectopic bone volume D14: 1.54 ± 2.48 mm^3
  percent change from vehicle (D14): -86.1%
  Mean ectopic bone volume D22: 0.58 ± 0.96 mm^3
  percent change from vehicle (D22): -94.7%
